Data reported in patent publication US20210115494A1, “Improved method for measurement of microbial biomass” (Mycometer A/S, priority 2018, published 2021).

Experiments:
[1] = test system: NAHA activity from all sources; experiment: NAHA activity assay, all sources; format: biochemical; conditions: 500 μM
Method: (§1) In order to determine NAHA activity in different samples, the technology in WO 98/033934 was employed: A sample containing a dried or freeze dried organism is added to a buffer solution containing 4-Methylumbelliferyl N-acetyl-β-D-glucosaminide in a concentration of 20 μM. The reaction-time is varied depending on the ambient temperature and according to a reaction-time/temperature data sheet previously developed for fungal NAHA activity at various temperatures, and is 30 minutes at 23° C. The resulting fluorescence formed during the reaction time is monitored in a calibrated fluorometer.

fungal NAHA activity = experiment: NAHA activity assay, fungal sources overall; format: biochemical, fungi; conditions: 10 μM
Method: as §1
(§2) Experiments were conducted where varying concentrations of AgNO3 was added to an analysis substrate. Furthermore, the experiments where performed on dried or freeze dried materials where both intact and fragmented cells are to be expected to be present.
(§3) Experiments analogous to those in example 1 were carried out, but instead of using non-specific inhibitors, the effect of different concentrations of DNJNAc on the NAHA activity in various biomass containing samples was investigated.
The experiments were performed with whole cell/organism cultures rather than purified enzyme, which is normally used in experiments on specific inhibition. It is plausible, though, that the surprising non-specific inhibition effect observed for Ag^+ and Hg^+ could be due to the inhibitors being delayed in physically contacting the NAHA enzyme in the fungi when compared to other types of biomass.

non-fungal NAHA activity = experiment: NAHA activity assay, non-fungal sources overall; format: biochemical; conditions: 10 μM
Method: as §1, §2, §3

Compound | inhibiting effect on NAHA activity from all sources [1] | inhibition of fungal NAHA activity (fungal NAHA activity) | inhibition of non-fungal NAHA activity (non-fungal NAHA activity)
[Cu+2] [Cu^2+] | did not exhibit any or exhibited only very slight inhibiting effect |  | 
[Hg+] [Hg^+] |  | less inhibition (but more than Ag^+) | high inhibition
